Measurements reported in ChEMBL document CHEMBL2331175, “On dihydroorotate dehydrogenases and their inhibitors and uses” (J Med Chem, 2013).

What was measured:
[1] = molecular target: Dihydroorotate dehydrogenase (quinone), mitochondrial (Rattus norvegicus) (UniProt Q63707); experiment: Competitive inhibition of rat purified recombinant DHODH in presence of cofactor ubiquinone
[2] = molecular target: T1, Dihydroorotate dehydrogenase (quinone), mitochondrial (Homo sapiens, UniProt Q02127); experiment: Inhibition of human purified recombinant DHODH
[3] = molecular target: T2, Dihydroorotate dehydrogenase (Plasmodium falciparum, UniProt Q54A96); experiment: Inhibition of plasmodium falciparum DHODH assessed as inhibition of [14C]bicarbonate incorporation into pyrimidine nucleotide by HPLC analysis
T2 sequence (Q54A96 whole entry): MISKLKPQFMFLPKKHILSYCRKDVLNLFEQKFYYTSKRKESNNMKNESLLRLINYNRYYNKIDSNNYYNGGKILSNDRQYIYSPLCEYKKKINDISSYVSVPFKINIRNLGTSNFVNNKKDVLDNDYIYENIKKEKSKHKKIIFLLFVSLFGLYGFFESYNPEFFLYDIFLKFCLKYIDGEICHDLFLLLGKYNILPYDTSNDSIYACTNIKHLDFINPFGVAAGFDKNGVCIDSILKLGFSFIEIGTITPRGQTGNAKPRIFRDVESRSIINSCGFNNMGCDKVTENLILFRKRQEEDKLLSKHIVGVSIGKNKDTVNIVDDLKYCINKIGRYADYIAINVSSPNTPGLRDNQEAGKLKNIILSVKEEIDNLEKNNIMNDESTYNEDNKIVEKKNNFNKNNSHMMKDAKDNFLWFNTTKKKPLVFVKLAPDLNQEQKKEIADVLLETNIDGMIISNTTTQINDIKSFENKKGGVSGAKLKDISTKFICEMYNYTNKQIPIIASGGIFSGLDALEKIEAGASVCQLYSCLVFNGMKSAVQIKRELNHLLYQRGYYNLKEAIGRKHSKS

[4] = molecular target: Dihydroorotate dehydrogenase (quinone), mitochondrial (Rattus norvegicus, UniProt Q63707); experiment: Inhibition of rat purified recombinant DHODH
[5] = molecular target: T1, Dihydroorotate dehydrogenase (quinone), mitochondrial; experiment: Competitive inhibition of human purified recombinant DHODH in presence of cofactor ubiquinone
[6] = molecular target: Voltage-gated inwardly rectifying potassium channel KCNH2 (Homo sapiens, UniProt Q12809); experiment: Inhibition of human ERG channel overexpressed in Chinese hamster CHOK1 cells by whole cell voltage clamp assay; assay type: cell-based, CHO-K1
[7] = Half life in human; assay type: ADME, organism-based; details: in vivo

T1 sequence (Q02127 whole entry): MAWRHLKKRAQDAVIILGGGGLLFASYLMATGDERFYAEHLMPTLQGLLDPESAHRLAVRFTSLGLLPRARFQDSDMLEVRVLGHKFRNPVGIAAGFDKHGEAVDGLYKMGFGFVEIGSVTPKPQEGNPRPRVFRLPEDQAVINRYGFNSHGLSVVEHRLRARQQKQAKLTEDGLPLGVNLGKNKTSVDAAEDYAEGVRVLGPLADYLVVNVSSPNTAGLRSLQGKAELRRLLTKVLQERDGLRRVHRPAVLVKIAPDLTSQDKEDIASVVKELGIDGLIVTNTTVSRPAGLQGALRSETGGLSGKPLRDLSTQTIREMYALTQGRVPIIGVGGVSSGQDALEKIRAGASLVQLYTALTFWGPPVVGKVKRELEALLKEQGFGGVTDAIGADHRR
Chain of Voltage-gated inwardly rectifying potassium channel KCNH2 (Q12809 whole entry): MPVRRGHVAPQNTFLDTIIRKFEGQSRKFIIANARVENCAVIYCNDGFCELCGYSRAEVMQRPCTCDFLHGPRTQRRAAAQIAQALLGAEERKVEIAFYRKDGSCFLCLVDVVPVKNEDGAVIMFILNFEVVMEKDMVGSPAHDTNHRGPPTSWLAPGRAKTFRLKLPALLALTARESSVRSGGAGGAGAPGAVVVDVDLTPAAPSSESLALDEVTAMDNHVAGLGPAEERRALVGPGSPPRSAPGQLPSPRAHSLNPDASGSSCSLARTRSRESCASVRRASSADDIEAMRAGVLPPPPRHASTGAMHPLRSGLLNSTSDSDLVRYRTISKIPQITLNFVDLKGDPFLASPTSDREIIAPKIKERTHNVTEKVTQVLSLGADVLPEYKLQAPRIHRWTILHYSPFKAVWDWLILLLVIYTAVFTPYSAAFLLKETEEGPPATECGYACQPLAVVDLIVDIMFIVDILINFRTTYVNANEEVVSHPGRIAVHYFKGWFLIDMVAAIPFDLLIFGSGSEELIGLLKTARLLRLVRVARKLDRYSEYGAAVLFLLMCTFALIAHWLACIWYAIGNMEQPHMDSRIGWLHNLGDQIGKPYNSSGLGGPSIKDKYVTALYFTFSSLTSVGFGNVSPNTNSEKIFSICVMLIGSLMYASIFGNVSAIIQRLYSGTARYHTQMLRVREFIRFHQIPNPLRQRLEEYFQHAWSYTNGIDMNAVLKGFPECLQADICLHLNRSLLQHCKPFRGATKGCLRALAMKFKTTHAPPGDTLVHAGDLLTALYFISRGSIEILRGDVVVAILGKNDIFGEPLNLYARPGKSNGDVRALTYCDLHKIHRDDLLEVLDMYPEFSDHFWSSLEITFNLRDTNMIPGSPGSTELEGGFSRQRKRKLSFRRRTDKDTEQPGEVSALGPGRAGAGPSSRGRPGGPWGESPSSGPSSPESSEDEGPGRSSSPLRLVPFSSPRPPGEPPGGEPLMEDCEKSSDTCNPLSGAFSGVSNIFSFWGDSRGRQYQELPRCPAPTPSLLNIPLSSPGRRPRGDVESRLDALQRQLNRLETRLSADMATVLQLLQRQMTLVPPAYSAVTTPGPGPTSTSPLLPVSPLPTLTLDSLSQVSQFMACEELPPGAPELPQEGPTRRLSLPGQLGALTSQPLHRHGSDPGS
Chain of Dihydroorotate dehydrogenase (quinone), mitochondrial (Rattus norvegicus, UniProt Q63707) (Q63707 whole entry): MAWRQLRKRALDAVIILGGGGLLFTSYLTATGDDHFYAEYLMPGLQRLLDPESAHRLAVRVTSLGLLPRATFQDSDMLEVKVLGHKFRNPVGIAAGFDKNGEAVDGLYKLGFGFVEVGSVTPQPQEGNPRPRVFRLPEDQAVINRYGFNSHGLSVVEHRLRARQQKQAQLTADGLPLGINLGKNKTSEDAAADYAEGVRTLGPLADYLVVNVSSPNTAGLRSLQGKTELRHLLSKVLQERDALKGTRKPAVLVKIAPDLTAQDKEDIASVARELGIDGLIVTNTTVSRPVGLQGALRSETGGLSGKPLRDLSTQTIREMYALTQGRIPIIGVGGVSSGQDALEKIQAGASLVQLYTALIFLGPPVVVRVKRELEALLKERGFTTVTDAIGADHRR
Chain of Dihydroorotate dehydrogenase (quinone), mitochondrial (Rattus norvegicus) (Q63707 whole entry): as above

With `O=C1C(O)=C([C@H]2CC[C@H](c3ccc(Cl)cc3)CC2)C(=O)c2ccccc21` [ATOVAQUONE] as the molecule, how does the Kic [1] read?
Its Kic is 60 nM.

And the IC50 [2]?
Its IC50 is 14.5 µM.

What about the Ki [3] of the same molecule?
The Ki was 27 µM.

And the IC50 [4]?
Its IC50 is 0.7 µM.

And the Kic [5]?
Its Kic is 2.7 µM.

With `Cc1nc2cc(OC(F)(F)F)ccc2n1-c1ccc(C(=O)NC2CC2)s1` as the molecule, how does the IC50 [6] read?
Its IC50 is less than 2.8 µM.

Which half-life [7] does the source give for `Cc1cc(NC(=O)/C(C#N)=C(\O)C2CC2)ccc1C(F)(F)F` here?
Its half-life is 3.5 h.

Which half-life [7] does the source give for `C/C(O)=C(\C#N)C(=O)Nc1ccc(C(F)(F)F)cc1` [TERIFLUNOMIDE] here?
The half-life was greater than 336 h.
